Results: patent US20170107207A1, “AMINOPYRAZOLONE DERIVATIVE” (DAIICHI SANKYO COMPANY, LIMITED, priority 2014, published 2017)

Key:
Type in all cases: cell-based
HCC1954 = assay: Cell growth inhibition test, HCC1954; conditions: Homo sapiens, 72 h; HCC1954, Breast cancer, 3 days, CellTiter-Glo
Procedure: (§1) A cell growth inhibition test was carried out by treating a cultured cancer cell line with a test compound for a given period and then counting the number of viable cells by CellTiter-Glo Luminescent Cell Viability Assay (manufactured by Promega Corp.).
(§2) The following cells were inoculated to a 384-well plate containing the compound prepared in advance at predetermined concentrations. […]
(§3) The cells thus inoculated were cultured at 37° C. for 3 days under 5% CO2. […] Then, luminescence intensity was measured using a plate reader.
(§4) The number of viable cells and luminescence intensity have been confirmed to correlate with each other. Therefore, the rate of cell growth was calculated according to the following expression: Rate of cell growth (T/C %) of a test compound-supplemented well=100×[(B−C)/(A−C)] wherein A represents the luminescence intensity (final culture date) of a test compound-free well; B represents the luminescence intensity (final culture date) of a test compound-containing well; and C represents the luminescence intensity (day of cell inoculation) of a well at the start of contact of the cells with the test compound.
(§5) T/C % at the concentration of each of the serially diluted test compounds was determined. […]

CAL-51 = assay: Cell growth inhibition test, CAL-51; conditions: Homo sapiens, 72 h; CAL-51, Breast cancer, 3 days, CellTiter-Glo
Procedure: as §1, §2, §3, §4, §5

BT-20 = assay: Cell growth inhibition test, BT-20; conditions: Homo sapiens, 72 h; BT-20, Breast cancer, 3 days, CellTiter-Glo
Procedure: as §1, §2, §3, §4, §5

D283 Med = assay: Cell growth inhibition test, D283 Med; conditions: Homo sapiens, 72 h, Brain tumor Central Nerve System, 3 days, CellTiter-Glo
Procedure: as §1, §2, §3, §4, §5

HCT 116 = assay: Cell growth inhibition test, HCT 116; conditions: Homo sapiens, 72 h; HCT 116, Large intestine cancer, 3 days, CellTiter-Glo
Procedure: as §1, §2, §3, §4, §5

RKO = assay: Cell growth inhibition test, RKO; conditions: Homo sapiens, 72 h, Large intestine cancer, 3 days, CellTiter-Glo
Procedure: as §1, §2, §3, §4, §5

SW620 = assay: Cell growth inhibition test, SW620; conditions: Homo sapiens, SW-620, 72 h; SW620, Large intestine cancer, 3 days, CellTiter-Glo
Procedure: as §1, §2, §3, §4, §5

SW948 = assay: Cell growth inhibition test, SW948; conditions: Homo sapiens, 72 h; SW948, Large intestine cancer, 3 days, CellTiter-Glo
Procedure: as §1, §2, §3, §4, §5

MKN45 = assay: Cell growth inhibition test, MKN45; conditions: Homo sapiens, MKN-45, 72 h; MKN45, Stomach cancer, 3 days, CellTiter-Glo
Procedure: as §1, §2, §3, §4, §5

ACHN = assay: Cell growth inhibition test, ACHN; conditions: Homo sapiens, 72 h, Kidney cancer, 3 days, CellTiter-Glo
Procedure: as §1, §2, §3, §4, §5

RAMOS = assay: Cell growth inhibition test, RAMOS; conditions: Homo sapiens, 72 h, Lymphoma, 3 days, CellTiter-Glo
Procedure: as §1, §2, §3, §4, §5

OCI-LY7 = assay: Cell growth inhibition test, OCI-LY7; conditions: Homo sapiens, 72 h; OCI-LY7, Lymphoma, 3 days, CellTiter-Glo
Procedure: as §1, §2, §3, §4, §5

DMS 273 = assay: Cell growth inhibition test, DMS 273; conditions: Homo sapiens, 72 h; DMS 273, Lung cancer, 3 days, CellTiter-Glo
Procedure: as §1, §2, §3, §4, §5

NCI-H146 = assay: Cell growth inhibition test, NCI-H146; conditions: Homo sapiens, 72 h; NCI-H146, Lung cancer, 3 days, CellTiter-Glo
Procedure: as §1, §2, §3, §4, §5

BxPC-3 = assay: Cell growth inhibition test, BxPC-3; conditions: Homo sapiens, 72 h; BxPC-3, Pancreatic cancer, 3 days, CellTiter-Glo
Procedure: as §1, §2, §3, §4, §5

PANC-1 = assay: Cell growth inhibition test, PANC-1; conditions: Homo sapiens, 72 h; PANC-1, Pancreatic cancer, 3 days, CellTiter-Glo
Procedure: as §1, §2, §3, §4, §5

A-431 = assay: Cell growth inhibition test, A-431; conditions: Homo sapiens, 72 h; A-431, Skin cancer, 3 days, CellTiter-Glo
Procedure: as §1, §2, §3, §4, §5

COLO 829 = assay: Cell growth inhibition test, COLO 829; conditions: Homo sapiens, 72 h; COLO 829, Skin cancer, 3 days, CellTiter-Glo
Procedure: as §1, §2, §3, §4, §5

HT-1080 = assay: Cell growth inhibition test, HT-1080; conditions: Homo sapiens, 72 h; HT-1080, Bone and soft tissue tumor, 3 days, CellTiter-Glo
Procedure: as §1, §2, §3, §4, §5

SJSA-1 = assay: Cell growth inhibition test, SJSA-1; conditions: Homo sapiens, 72 h; SJSA-1, Bone and soft tissue tumor, 3 days, CellTiter-Glo
Procedure: as §1, §2, §3, §4, §5

GI50 (HCC1954) [nM]	GI50 (BT-20) [nM]	GI50 (HCT 116) [nM]	GI50 (SW620) [nM]	GI50 (SW948) [nM]	GI50 (MKN45) [nM]	GI50 (ACHN) [nM]	GI50 (RAMOS) [nM]	GI50 (OCI-LY7) [nM]	GI50 (NCI-H146) [nM]	GI50 (BxPC-3) [nM]	GI50 (PANC-1) [nM]	GI50 (A-431) [nM]	GI50 (COLO 829) [nM]	GI50 (HT-1080) [nM]	GI50 (SJSA-1) [nM]	SMILES	GI50 (CAL-51) [nM]	GI50 (D283 Med) [nM]	GI50 (RKO) [nM]	GI50 (DMS 273) [nM]
340	590	180	840	3900	480	1800	130	130	1100	220	900	210	200	220	750	CCOc1ccc(Cl)cc1C(=O)NCC(C)(C)CC(=O)Nc1c([C@H](C)CN(C)C)n(C)n(-c2ccccc2)c1=O [Example 68, 5-Chloro-N-[4-({5-[(1R)-2-(dimethylamino)-1-methylethyl]-1-methyl-3-oxo-2-phenyl-2,3-dihydro-1H-pyrazol-4-yl}amino)-2,2-dimethyl-4-oxobutyl]-2-ethoxybenzamide]	800	130	240	310
920	1300	460	1600	4200	1100	2500	220	370	2700	440	2000	540	480	520	1300	CCOc1ncc(Cl)cc1C(=O)NCC(C)(C)CC(=O)Nc1c([C@H](C)CN(C)C)n(C)n(-c2ccccc2)c1=O [Example 73, 5-Chloro-N-[4-({5-[(1R)-2-(dimethylamino)-1-methylethyl]-1-methyl-3-oxo-2-phenyl-2,3-dihydro-1H-pyrazol-4-yl}amino)-2,2-dimethyl-4-oxobutyl]-2-ethoxypyridine-3-carboxamide]	1300	310	570	780
720	850	230	910	1400	1000	970	160	150	2000	370	1200	390	350	350	870	CCOc1cc(F)c(Cl)cc1C(=O)NCC(C)(C)CC(=O)Nc1c(COC)n(C)n(-c2ccccc2)c1=O [Example 113, 5-Chloro-2-ethoxy-4-fluoro-N-(4-{[5-(methoxymethyl)-1-methyl-3-oxo-2-phenyl-2,3-dihydro-1H-pyrazol-4-yl]amino}-2,2-dimethyl-4-oxobutyl)benzamide]	620	230	310	540
